# Measured values as given in patent US20230390269A1, “METHOD OF TREATMENT WITH TRADIPITANT” (Vanda Pharmaceuticals Inc., priority 2017, published 2023).
# Bridge positions count the residues as written; N and C are the ends. Square brackets hold non-standard residues; d marks the D form. Peptide text beside a SMILES is read from it. * marks the point of attachment. NH(β-GlcNAc) = CC(=O)N[C@@H]1[C@@H](O)[C@H](O)[C@@H](CO)O[C@H]1N*; Dap = NC[C@H](N)C(=O)O
# Tests used:
# NK-1 = target: T1, NK-1 (Homo sapiens, UniProt P25103); settings: patients with IBS, double-blind study; cited from earlier work
# T1 construct: host or cells: patients with IBS
# NK-1 receptor [1] = target: T2, NK-1 receptor (Meriones unguiculatus, UniProt Q5DUB1); assay: NK-1 agonist (GR73632, icv)-induced foot-tapping behavior in gerbils; format: in vivo, Mongolian gerbil
# T2 construct: from tissue; host or cells: living gerbil, brain (icv agonist)
# Procedure: Male Mongolian gerbils (Harlan Sprague Dawley, Indianapolis, IN) weighing 26 to 40 grams are administered the selective neurokinin-1 receptor agonist GR73632 (3 pmol) via direct, vertical, free-hand intracerebroventricular (icy) injection to a depth of 4.5 mm below bregma with a cuffed 27-gauge needle attached to a 50 μl Hamilton syringe. Immediately after injection, animals are placed individually into isolated chambers with pressure-sensitive velocimeter platform floors (San Diego Instruments acoustic startle apparatus) that detect and quantify vibration. The San Diego Instruments “SR” DOS-based computer program is used on a PC to record the number of foot-taps over the following 6 to 10 minutes, beginning 30 seconds after the floor was lightly tapped. Raw data is converted with a Microsoft Excel macro that determines the number of events over threshold (125) in each 250-millisecond time bin over the 5.5 minutes following onset of observation. The total number and average intensity of events over the duration is determined. Total number of taps is analyzed with one-way ANOVA and post-hoc Dunnett's test using JMP statistical software.
# A dose-response curve (with doses of 0.3, 1, 3 and 10 pmols, icy) is initially generated with the NK-1 agonist GR73632. […] The 3 pmol dose is subsequently chosen as the dose of choice for antagonism experiments.
# NK-1 antagonists are tested for their ability to attenuate GR73632-induced foot tapping. NK-1 antagonists are administered (po) via oral feeding tube at doses and time points specified in each experiment. All animals receive only one dose of NK-1 antagonists in all tests.
# NK-1 antagonists are administered at multiple doses (at least 3; one dose per animal) and response to GR73632 is measured.
# Tradipitant is dissolved in 1% CMC/0.5% SLS/0.085% PVP vehicle.
# NK-2 receptor [2] = target: T3, NK-2 receptor (Homo sapiens, UniProt P21452); settings: in vivo; cited from earlier work
# T3 sequence (P21452 1-398): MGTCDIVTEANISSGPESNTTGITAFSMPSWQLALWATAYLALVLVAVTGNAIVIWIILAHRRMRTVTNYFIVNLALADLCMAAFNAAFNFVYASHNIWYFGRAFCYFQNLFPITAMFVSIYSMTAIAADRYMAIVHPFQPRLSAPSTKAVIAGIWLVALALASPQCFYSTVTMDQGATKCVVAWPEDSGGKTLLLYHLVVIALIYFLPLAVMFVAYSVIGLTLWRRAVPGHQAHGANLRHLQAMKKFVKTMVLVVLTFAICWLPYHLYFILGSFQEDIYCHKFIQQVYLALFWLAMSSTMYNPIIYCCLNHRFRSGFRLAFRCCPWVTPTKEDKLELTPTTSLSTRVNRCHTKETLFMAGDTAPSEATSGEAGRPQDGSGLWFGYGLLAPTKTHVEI
# [3] = system: panel of 74 other receptors, enzymes, and ion channels; assay: Selectivity panel of 74 other receptors, enzymes and ion channels; format: binding
# Procedure: By 3 different measures, tradipitant is also a potent centrally active NK-1 antagonist in vivo.
# (§1) In addition, tradipitant is evaluated in a panel of 74 other receptors, enzymes, and ion channels.
# NK-2 receptor [4] = target: T3, NK-2 receptor; assay: NK-2 receptor inhibition (selectivity panel); format: binding
# Procedure: as §1
# NK-3 receptor = target: T4, NK-3 receptor (Homo sapiens, UniProt P29371); assay: NK-3 receptor inhibition (selectivity panel); format: binding
# T4 sequence (P29371 1-465): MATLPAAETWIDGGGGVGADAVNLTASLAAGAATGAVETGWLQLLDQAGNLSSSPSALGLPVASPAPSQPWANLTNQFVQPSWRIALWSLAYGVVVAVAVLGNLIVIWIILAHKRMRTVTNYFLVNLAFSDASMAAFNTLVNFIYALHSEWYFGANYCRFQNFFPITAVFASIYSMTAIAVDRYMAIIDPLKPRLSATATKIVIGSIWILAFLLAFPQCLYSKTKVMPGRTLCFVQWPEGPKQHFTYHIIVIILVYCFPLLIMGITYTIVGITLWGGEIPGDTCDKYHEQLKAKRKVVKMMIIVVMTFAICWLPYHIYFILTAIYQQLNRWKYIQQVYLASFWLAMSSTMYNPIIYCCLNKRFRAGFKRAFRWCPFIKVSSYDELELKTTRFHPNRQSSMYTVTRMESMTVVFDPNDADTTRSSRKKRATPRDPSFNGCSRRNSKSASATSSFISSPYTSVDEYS
# Procedure: as §1
# NK-1 receptor [5] = target: T5, NK-1 receptor (Cavia porcellus, UniProt P30547); assay: GR73632-induced vocalization in guinea pigs; format: in vivo, guinea pig
# T5 construct: from tissue; host or cells: living guinea pig, brain (icv agonist)
# Procedure: When introduced into the brain, the NK-1 receptor agonist, substance P (SP) elicits distress vocalizations in the guinea pig that can be inhibited by NK-1 antagonists (Kramer et al. 1998; Rupniak et al. 2000).
# Male Dunkin/Hartley guinea pigs (200 to 250 grams) are orally administered either vehicle or an NK-1 antagonist. Approximately 45 minutes later (for dose response studies), the animals are anesthetized and 0.1 nmol of GR73632 (SP analog) in a vehicle volume of 5 μl is injected into the cerebral ventricle at the intersection of bregma and the midline of the skull. Animals are placed in a dark testing chamber located inside of a sound attenuation cubicle and vocalizations are recorded for 30 minutes following recovery from anesthesia. The time spent vocalizing is quantified for each animal. In the duration of action study (FIG. 5), 0.1 mg/kg of tradipitant or vehicle solution is administered orally and then 2, 4, or 7 hours later, 0.1 nmol of GR73632 is administered into the cerebral ventricle as described above. Vocalizations are recorded and quantified as indicated above. Vehicle solutions are either CMC (FIG. 4 data) or a 10% ethanol/emulphor, 10% propylene glycol solution (FIGS. 5 and 6). Data is analyzed using one-tailed t-tests.
# brain NK-1 receptors = assay: Occupancy of brain NK-1 receptors with tracer GR205171; format: in vivo; settings: p.o., tracer GR205171 iv
# Procedure: A tracer NK-1 antagonist compound (GR205171) is used to evaluate the ability of other NK-1 antagonists to occupy the brain NK-1 receptors. In these studies, the test compounds are administered orally and the tracer compound administered intravenously afterward. The occupancy of the NK-1 receptors is evaluated by quantitating the amount of the tracer compound bound to the brain NK-1 receptors after increasing doses of the test compounds.
# nausea in gastroparesis = assay: Phase II study in patients with gastroparesis, open label extension; format: in vivo, human; settings: 85 mg bid
# Excerpt: In a phase II study of tradipitant in patients with gastroparesis, participants initially enter 4 week screening period prior to treatment with tradipitant, during which they answer a daily symptom questionnaire rating their nausea severity on a scale of […] 0 represents no nausea, 1 represents very mild nausea, 2 represents mild nausea, 3 represents moderate nausea, 4 represents severe nausea, and 5 represents very severe nausea. After the 4 week screening period, patients enter the double blind randomized portion of the study, in which they receive either tradipitant 85 mg bid, or placebo. After 4 weeks of blinded study drug treatment, patients have the opportunity to enter an additional 8 week open label extension, during which each subject receives tradipitant 85 mg bid. 64 subjects participate in at least one week of the open label tradipitant dosing portion of the study. The average daily diarized nausea scores are reported for subjects during the 4 week screening period and during the up to 8 week open label extension.
# T2 sequence (Q5DUB1 whole entry): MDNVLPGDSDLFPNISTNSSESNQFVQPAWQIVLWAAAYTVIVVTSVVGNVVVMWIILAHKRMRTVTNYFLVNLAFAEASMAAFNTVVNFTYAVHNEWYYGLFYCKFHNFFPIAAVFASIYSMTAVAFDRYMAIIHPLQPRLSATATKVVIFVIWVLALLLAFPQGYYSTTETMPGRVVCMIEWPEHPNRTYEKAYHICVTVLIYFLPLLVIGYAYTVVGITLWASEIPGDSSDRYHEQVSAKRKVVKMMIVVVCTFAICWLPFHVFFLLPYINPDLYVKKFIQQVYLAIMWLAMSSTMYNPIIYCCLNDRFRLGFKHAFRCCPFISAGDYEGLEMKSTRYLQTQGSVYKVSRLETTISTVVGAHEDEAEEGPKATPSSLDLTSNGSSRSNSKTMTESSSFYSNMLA
# T5 sequence (P30547 whole entry): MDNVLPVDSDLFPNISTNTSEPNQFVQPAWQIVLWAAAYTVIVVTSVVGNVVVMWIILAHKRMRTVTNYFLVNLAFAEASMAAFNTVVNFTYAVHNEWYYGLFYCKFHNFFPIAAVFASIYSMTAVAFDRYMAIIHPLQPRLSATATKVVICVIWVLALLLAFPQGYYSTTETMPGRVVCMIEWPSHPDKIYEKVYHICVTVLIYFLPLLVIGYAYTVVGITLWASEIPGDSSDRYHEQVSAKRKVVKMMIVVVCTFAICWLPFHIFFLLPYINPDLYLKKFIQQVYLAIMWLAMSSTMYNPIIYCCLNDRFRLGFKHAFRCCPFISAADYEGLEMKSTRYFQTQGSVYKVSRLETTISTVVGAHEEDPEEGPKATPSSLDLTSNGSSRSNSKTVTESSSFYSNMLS
# T1 sequence (P25103 whole entry): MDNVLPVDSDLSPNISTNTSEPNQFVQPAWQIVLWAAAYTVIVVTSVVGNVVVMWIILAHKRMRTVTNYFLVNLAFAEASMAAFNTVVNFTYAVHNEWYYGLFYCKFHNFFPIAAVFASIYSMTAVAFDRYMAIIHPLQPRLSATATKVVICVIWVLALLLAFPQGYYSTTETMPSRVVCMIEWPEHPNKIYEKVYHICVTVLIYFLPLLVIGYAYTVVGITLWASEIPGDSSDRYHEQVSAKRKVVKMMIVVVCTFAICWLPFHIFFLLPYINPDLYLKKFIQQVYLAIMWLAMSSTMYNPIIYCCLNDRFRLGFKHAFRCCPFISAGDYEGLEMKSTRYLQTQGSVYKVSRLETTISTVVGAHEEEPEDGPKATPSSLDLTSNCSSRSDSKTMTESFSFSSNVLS
compound,measurement,setting,value
"COc1ccc(C(C)C)cc1CN[C@H]1C2CCN(CC2)[C@H]1C(c1ccccc1)c1ccccc1 [CJ-11,974]",discomfort associated with rectosigmoidal distension,NK-1,alleviated the discomfort
C[C@@H](O[C@H]1OCCN(Cc2n[nH]c(=O)[nH]2)[C@H]1c1ccc(F)cc1)c1cc(C(F)(F)F)cc(C(F)(F)F)c1 [MK-869],time after administration up to which foot-tapping is significantly inhibited,NK-1 receptor [1]; 1.2 mg/kg po,up to 24 hours
same,"ED50, inhibition of foot-tapping behavior","NK-1 receptor [1]; po, GR 73632 3 pmol icv, gerbil",0.4 ± 0.05 mg/kg
CC(=O)N[C@@H]1[C@@H](O)[C@H](O)[C@@H](CO)O[C@H]1NC(=O)C[C@@H]1NC(=O)[C@H](CC(C)C)NC(=O)[C@@H]2CNC(=O)C[C@H](NC1=O)C(=O)N[C@@H](Cc1c[nH]c3ccccc13)C(=O)N[C@@H](Cc1ccccc1)C(=O)N2 [nepadutant] (cyclo(D(NH(β-GlcNAc))DWF[Dap]L); lactam 2-5),basal gastrointestinal motility,NK-2 receptor [2],without affecting
same,motility-stimulating effect of neurokinin A,NK-2 receptor [2],effectively antagonized
"O=C(c1ccccc1Cl)c1cccnc1-c1nnn(Cc2cc(C(F)(F)F)cc(C(F)(F)F)c2)c1-c1ccncc1 [tradipitant, {2-[1-(3,5-bistrifluoromethylbenzyl)-5-pyridin-4-yl-1H-[1,2,3]triazol-4-yl]-pyridin-3-yl}-(2-chlorophenyl)-methanone]","activity in panel of 74 additional receptors, enzymes, and ion channels including NK-2 and NK-3",[3],no significant activity
same,inhibition of binding,"[3]; test concentration 1 μM, 74 targets",≤ 50%
same,inhibition at the NK-2 receptor,NK-2 receptor [4],no significant inhibition
same,inhibition at the NK-3 receptor,NK-3 receptor,no significant inhibition
same,time after administration up to which foot-tapping is significantly inhibited,NK-1 receptor [1]; 0.1 mg/kg po,up to 7 hours
same,time after administration up to which foot-tapping is significantly reversed,NK-1 receptor [1]; 1 mg/kg,up to 16 hours
same,inhibition of vocalization at low doses,"NK-1 receptor [5]; at and below 0.1 mg/kg, 0.05 and 0.025 mg/kg, p<0.001",retains significant inhibitory activity
same,"suppression of agonist-induced vocalization, duration of activity study","NK-1 receptor [5]; single dose 0.1 mg/kg oral, 7 hours after administration",significantly active
same,"estimated ED50, brain NK-1 receptor occupancy",brain NK-1 receptors,0.04 mg/kg
same,change of average daily nausea score compared to pre-treatment,nausea in gastroparesis,reduced by approximately one half
same,change of average percentage of nausea-free days compared to pre-treatment,nausea in gastroparesis,doubled or greater
